3 compounds from PMC11791039, “A split intein and split luciferase-coupled system for detecting protein-protein interactions” (Molecular Systems Biology, 2024) can be followed below.

Assay type in all cases: cell-based
One test concerns the target T1, EGFR(WT)/SHC1 (Homo sapiens, UniProt P00533).
T1 construct: β10-IN (tNLuc β10 peptide + GP41-1 split intein N fragment) (C); V5; expressed in transfected cells
In words: SIMPL2 assay EGFR(WT)/SHC1. To be noted: for SIMPL2 signal, WT (Fig. 3D): replicates 1-4; for normalized SIMPL2 signal EGFR/SHC1 (Fig. 3A source data): 16 h, replicates 1-3.

In the next test the target is T2, control (Homo sapiens, UniProt P01116, G12C).
T2 construct: IC-β9 (GP41-1 split intein C fragment + tNLuc β9 peptide) (N); FLAG; expressed in transfected cells
The experiment in a line: SIMPL2 assay, control of Fig. 3B-D. To be noted: replicates 1-4.

In a further test the target is T3, MDM2/MDM4 interaction (Homo sapiens, UniProt O15151+Q00987).
T3 construct: β10-IN (tNLuc β10 peptide + GP41-1 split intein N fragment) (C); V5; IC-β9 (GP41-1 split intein C fragment + tNLuc β9 peptide) (N); FLAG; expressed in transfected cells
The experiment in a line: SIMPL2 assay MDM2/MDM4. To be noted: for SIMPL2 signal, MDM2/MDM4 (Fig. 4A): replicates 1-4. On the procedure:
We next tested the system with molecular glues, which are small molecule compounds that induce target protein interaction. […] To clarify, the two protein molecules are anchored together through a pair of dimerized RO-5963 molecules. […] Therefore, its binding kinetics display a monophasic change.
Figure 4 Evaluation of SIMPL2 as a drug discovery tool using molecular glue and PROTACs. […] Samples were measured and normalized as described in Materials and Methods. […] The cells were then subjected to SIMPL2 luciferase measurement, and the raw values are plotted.
Stable cells of target protein pair were created using Cas9 CRISPR. To characterize PPI modulators, the cells were seeded in 384 well plate (10,000 cells/well) and incubated for 5 h. […] Average signal of wells without either deoxycycline or compound treatment was used as blank or ‘floor’ signal (SF). The average signal of wells with deoxycycline treatment but without compound treatment was used as maximal interaction or ‘ceiling’ (SC). SIMPL2 reading of each sample (Ssample) was normalized according to the formula S^*sample = (Ssample– SF)/(SC– SF) x 100%, in which S^*sample stands for normalized signal. The normalized data of inhibitor experiments were fitted into a four-parameter inhibitor-response model.

Another test has as its target T4, EGFR(L858R)/SHC1 (Homo sapiens, UniProt P00533, L858R).
T4 construct: β10-IN (tNLuc β10 peptide + GP41-1 split intein N fragment) (C); V5; expressed in transfected cells
In words: SIMPL2 assay EGFR(L858R)/SHC1. As to conditions: for SIMPL2 signal, L858R (Fig. 3D): replicates 1-4.

For another test, the target named is T5, HRAS/RBD (Homo sapiens, UniProt P01112).
T5 construct: IC-β9 (GP41-1 split intein C fragment + tNLuc β9 peptide) (N); FLAG; expressed in transfected cells
In words: SIMPL2 assay HRAS/RBD. As to conditions: 16 h; for normalized SIMPL2 signal HRAS/RBD (Fig. 3A source data): replicates 1-3.

In another test the target is T6, KRAS(G12C)/RBD (Homo sapiens, UniProt P01116, G12C).
T6 construct: IC-β9 (GP41-1 split intein C fragment + tNLuc β9 peptide) (N); FLAG; expressed in transfected cells
In words: SIMPL2 assay KRAS(G12C)/RBD. As to conditions: for SIMPL2 signal, KRAS(G12C)/RBD (Fig. 4A): replicates 1-4.

“And” between values parts separate entries of the source, which are not always exact repeats. Identical values can stand only once.

T3 sequence (Q00987 whole entry, the tested form may be a part): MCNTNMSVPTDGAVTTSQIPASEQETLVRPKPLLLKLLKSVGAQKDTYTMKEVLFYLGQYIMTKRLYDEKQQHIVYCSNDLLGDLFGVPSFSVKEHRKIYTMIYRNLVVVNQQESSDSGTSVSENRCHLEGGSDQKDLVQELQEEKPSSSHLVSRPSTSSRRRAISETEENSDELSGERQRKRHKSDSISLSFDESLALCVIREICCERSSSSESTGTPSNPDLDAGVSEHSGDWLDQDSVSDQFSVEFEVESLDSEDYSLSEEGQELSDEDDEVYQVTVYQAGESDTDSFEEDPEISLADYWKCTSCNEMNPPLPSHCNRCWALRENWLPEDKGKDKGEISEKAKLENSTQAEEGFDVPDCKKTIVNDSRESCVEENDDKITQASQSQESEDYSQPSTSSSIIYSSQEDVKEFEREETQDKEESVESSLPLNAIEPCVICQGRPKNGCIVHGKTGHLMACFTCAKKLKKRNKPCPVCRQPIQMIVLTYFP
T3 sequence (O15151 whole entry, the tested form may be a part): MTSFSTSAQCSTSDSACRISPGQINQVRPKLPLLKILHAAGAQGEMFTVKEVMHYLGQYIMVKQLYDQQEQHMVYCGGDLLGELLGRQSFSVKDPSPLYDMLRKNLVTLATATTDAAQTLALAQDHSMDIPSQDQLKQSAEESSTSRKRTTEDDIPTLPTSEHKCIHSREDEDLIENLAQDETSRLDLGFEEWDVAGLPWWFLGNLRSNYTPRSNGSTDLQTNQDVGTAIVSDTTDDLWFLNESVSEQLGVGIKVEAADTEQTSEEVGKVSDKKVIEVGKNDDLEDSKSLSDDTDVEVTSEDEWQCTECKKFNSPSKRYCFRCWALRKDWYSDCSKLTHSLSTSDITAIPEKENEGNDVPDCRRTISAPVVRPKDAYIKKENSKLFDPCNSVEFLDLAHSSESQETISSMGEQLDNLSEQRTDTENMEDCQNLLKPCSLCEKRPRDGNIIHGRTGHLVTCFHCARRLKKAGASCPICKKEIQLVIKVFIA
T5 sequence (P01112 whole entry, the tested form may be a part): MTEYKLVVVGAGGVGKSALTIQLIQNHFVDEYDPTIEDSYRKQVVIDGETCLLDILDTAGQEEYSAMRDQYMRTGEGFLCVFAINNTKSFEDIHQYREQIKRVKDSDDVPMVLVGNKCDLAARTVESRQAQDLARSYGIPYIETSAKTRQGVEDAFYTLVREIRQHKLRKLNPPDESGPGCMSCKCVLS

`Cn1cnc2c(F)c(Nc3ccc(Br)cc3Cl)c(C(=O)NOCCO)cc21` [selumetinib, Selumetinib]: the “SIMPL2 signal, WT (Fig. 3D)” value at EGFR(WT)/SHC1 (AZD6244 6.4e-6 uM) was 117.981 and 128.314 and 91.3721 and 97.094; on EGFR(WT)/SHC1 (AZD6244 3.2e-5 uM), 96.8718 and 91.2055 and 86.3725 and 98.1494; at EGFR(WT)/SHC1 (AZD6244 0.00016 uM), 96.2607 and 97.2051 and 90.2055 and 118.204; at EGFR(WT)/SHC1 (AZD6244 0.0008 uM) it was 91.2055 and 95.2608 and 88.9279 and 100.427; on EGFR(WT)/SHC1 (AZD6244 0.004 uM) it was 91.5388 and 82.4283 and 71.7068 and 83.0949; at EGFR(WT)/SHC1 (AZD6244 0.02 uM), 79.8174 and 81.2062 and 88.8723 and 103.205. In addition, the “SIMPL2 signal, WT (Fig. 3D)” value is 113.815 and 112.593 and 100.427 and 98.6494 on EGFR(WT)/SHC1 (AZD6244 0.1 uM); 103.76 and 101.094 and 97.3717 and 91.7054 on EGFR(WT)/SHC1 (AZD6244 0.5 uM). On EGFR(WT)/SHC1 (doxycycline + compound 16 h), the “inhibition of EGFR(WT)/SHC1 interaction signal” value was “no effect”. Besides, the “SIMPL2 signal, control (Fig. 3D)” value was 109.596 and 130.088 on control (AZD6244 6.4e-6 uM); 98.632 and 104.891 and 97.5584 and 100.637 at control (AZD6244 3.2e-5 uM); 97.4795 and 101.781 and 98.0162 and 96.0508 at control (AZD6244 0.00016 uM); 100.171 and 103.684 and 97.3453 and 101.418 on control (AZD6244 0.0008 uM); 92.396 and 92.6013 and 98.3715 at control (AZD6244 0.004 uM); 95.5614 on control (AZD6244 0.02 uM). Also, the “SIMPL2 signal, control (Fig. 3D)” value at control (AZD6244 0.1 uM) was 91.3936 and 91.141; on control (AZD6244 0.5 uM) it was 89.4044. Also, on MDM2/MDM4 interaction (16 h with doxycycline), the “induction of MDM2/MDM4 interaction” value is given as “not observed”. The “SIMPL2 signal, MDM2/MDM4 (Fig. 4A)” value on MDM2/MDM4 interaction (AZD6244 0.013717 uM) was 105.342 and 94.3499 and 91.2095 and 111.623; at MDM2/MDM4 interaction (AZD6244 0.041152 uM), 84.4799 and 83.2835 and 83.9564 and 94.7238; at MDM2/MDM4 interaction (AZD6244 0.37037 uM) it was 85.1528 and 73.4882 and 95.2472 and 81.3394; on MDM2/MDM4 interaction (AZD6244 1.11111 uM), 73.7125 and 92.2563 and 82.1619 and 85.5267; on MDM2/MDM4 interaction (AZD6244 3.33333 uM) it was 70.0486 and 88.8915 and 67.3568 and 90.3869; on MDM2/MDM4 interaction (AZD6244 10 uM), 78.4232 and 90.5365 and 82.0123 and 90.6113. For the same compound, the “SIMPL2 signal, L858R (Fig. 3D)” value on EGFR(L858R)/SHC1 (AZD6244 6.4e-6 uM) was 107.975 and 92.9525 and 107.024 and 103.355; on EGFR(L858R)/SHC1 (AZD6244 3.2e-5 uM), 88.2795 and 92.9261 and 92.1077 and 96.4375; on EGFR(L858R)/SHC1 (AZD6244 0.00016 uM), 108.688 and 85.5073 and 82.6824 and 92.9525; on EGFR(L858R)/SHC1 (AZD6244 0.0008 uM), 91.1572 and 94.7742 and 86.1145 and 84.24; on EGFR(L858R)/SHC1 (AZD6244 0.004 uM), 85.9825 and 79.039 and 94.0877 and 83.58; at EGFR(L858R)/SHC1 (AZD6244 0.02 uM), 89.8635 and 58.7628 and 116.819 and 92.2661. Also, the “SIMPL2 signal, L858R (Fig. 3D)” value on EGFR(L858R)/SHC1 (AZD6244 0.1 uM) is 96.4375 and 99.3416 and 96.3319 and 106.18; at EGFR(L858R)/SHC1 (AZD6244 0.5 uM), 85.5073 and 101.612 and 96.3583 and 99.632. Moreover, at EGFR(L858R)/SHC1 (doxycycline + compound 16 h), the “effect on EGFR(L858R)/SHC1 interaction signal” value is listed as “no effect”.

Consider `C=CC(=O)N1CCN(c2nc(=O)n(-c3c(C)ccnc3C(C)C)c3nc(-c4c(O)cccc4F)c(F)cc23)[C@@H](C)C1` [sotorasib, Sotorasib], for which the “normalized SIMPL2 signal EGFR/SHC1 (Fig. 3A source data)” value is 102.175% and 103.017% and 94.8079% at EGFR(WT)/SHC1 (AMG510 0.013717 uM); 78.9251% and 82.2027% and 70.7463% at EGFR(WT)/SHC1 (AMG510 0.041152 uM); 78.0061% and 80.6558% and 79.5224% on EGFR(WT)/SHC1 (AMG510 0.37037 uM); 94.2258% and 88.5129% and 91.668% on EGFR(WT)/SHC1 (AMG510 1.11111 uM); 78.7566% and 76.4592% and 70.5625% at EGFR(WT)/SHC1 (AMG510 3.33333 uM); 53.0256% and 58.9069% and 63.3333% on EGFR(WT)/SHC1 (AMG510 10 uM). At EGFR(WT)/SHC1 (peer review file, authors confirm for EGFR/SHC1 only), the “inhibition of EGFR/SHC1 signal at high sotorasib concentrations (reviewer's reading of Fig. 3A)” value is recorded as 40-50%. The “normalized SIMPL2 signal HRAS/RBD (Fig. 3A source data)” value was 95.6644% and 96.1454% and 108.19% at HRAS/RBD (AMG510 0.013717 uM); 82.7154% and 124.68% and 97.6847% at HRAS/RBD (AMG510 0.041152 uM); 80.291% and 76.1158% and 82.6769% at HRAS/RBD (AMG510 0.37037 uM); 79.0981% and 97.1459% and 96.2801% on HRAS/RBD (AMG510 1.11111 uM); 91.6238% and 112.808% and 96.8766% on HRAS/RBD (AMG510 3.33333 uM); 106.247% and 100.629% and 127.854% at HRAS/RBD (AMG510 10 uM). For the same compound, on HRAS/RBD (control cells), the “inhibition of HRAS/RBD interaction signal” value was “no significant inhibition”.

Consider RO-5963, for which the “concentration above which MDM2/MDM4 interaction declines (hook effect)” value at MDM2/MDM4 interaction (16 h with doxycycline) is given as “above 3 μM”. Besides, the “concentration above which MDM2/MDM4 interaction was observed” value at MDM2/MDM4 interaction (16 h with doxycycline) was “above 0.3 μM”. Besides, the “concentration of peak MDM2/MDM4 interaction” value on MDM2/MDM4 interaction (16 h with doxycycline) turned out to be 3 µM. For the same compound, the “SIMPL2 signal, MDM2/MDM4 (Fig. 4A)” value on MDM2/MDM4 interaction (RO-5963 0.013717 uM) is 98.5373 and 90.6113 and 85.0033 and 102.575; at MDM2/MDM4 interaction (RO-5963 0.041152 uM) it was 93.004 and 86.0501 and 89.041 and 96.2193; on MDM2/MDM4 interaction (RO-5963 0.37037 uM), 155.514 and 142.28 and 150.579 and 141.083; on MDM2/MDM4 interaction (RO-5963 1.11111 uM) it was 502.238 and 458.421 and 548.523 and 430.606; at MDM2/MDM4 interaction (RO-5963 3.33333 uM), 934.354 and 877.9 and 842.009 and 825.259; at MDM2/MDM4 interaction (RO-5963 10 uM) it was 374.451 and 365.777 and 368.394 and 378.937. The “SIMPL2 signal, KRAS(G12C)/RBD (Fig. 4A)” value on KRAS(G12C)/RBD (RO-5963 0.013717 uM) is 109.968 and 129.491; at KRAS(G12C)/RBD (RO-5963 0.041152 uM), 115.427 and 110.7 and 113.906 and 96.9775; on KRAS(G12C)/RBD (RO-5963 0.37037 uM) it was 127.273 and 113.795 and 114.951; on KRAS(G12C)/RBD (RO-5963 1.11111 uM), 136.524 and 105.719 and 127.623 and 137.333; on KRAS(G12C)/RBD (RO-5963 3.33333 uM), 110.236 and 106.312 and 130.946; on KRAS(G12C)/RBD (RO-5963 10 uM), 136.758 and 112.554 and 138.094 and 146.423. Further, the “effect on KRAS(G12C)/RBD control interaction signal” value on KRAS(G12C)/RBD (doxycycline + compound 16 h, tested concentration range) was “not affected”.
